Experiments:
Format in all cases: in vivo
Conditions in all cases: for Germinative energy: day 3; for Germinative capacity / Number of lateral roots / Sprout height / Taproot length: day 7
[1] = tested on: tomato seeds (“Volgogradets” variety); experiment: Laboratory tests of DMOA and DEOA for tomato seeds
Protocol: (§1) After that DMOA and DEOA were dissolved in dimethyl sulfoxide to give solutions of 10 g/L concentration, then water was added to give aqueous solutions of DMOA with concentrations of 5.5·10^−5 M, 5.5·10^−6 M, 5.5·10^−7 M, 5.5·10^−8 M, 5.5·10^−9 M and DEOA with concentrations of 4.8·10^−5 M, 4.8·10^−6 M, 4.8·10^−7 M, 4.8·10^−8 M, 4.8·10^−9 M.
(§2) The obtained aqueous solutions of DMOA and DEOA were tested in the Scientific Center of Soil-Ecological Reasearch of the Federal State-Funded Educational Institution of Higher Education “Russian State Agrarian University—Moscow Agricultural Academy named after K. A. Timiryazev” (Moscow, 2015) according to the method described by T. A. Sergeeva (Method of laboratory testing of herbicides, Plant protection, 1963, No. 2, pp. 42-43). The primary laboratory screening of DMOA and DEOA was carried out on the seeds of five different crops: sunflower of “Voronezh 638” variety, soybean of “Vilana” variety, alfalfa of “Vega” variety, cucumber of “Nezhinsky” variety and tomato of “Volgogradets” variety.
(§3) Water was used as a reference.
(§4) A single experiment was carried out in a Petri dish. A circle of filter paper was laid at the bottom of the dish and treated with 5 ml of the work solution selected for the experiment. After that 25 seeds were uniformly laid on the surface of the treated filter paper. The Petri dish was kept at a temperature of 21-23° C. with illumination by fluorescent lamps for 7 days. The fourfold replication of the experiment within a single variant was applied.
(§5) The experiment identified the number and percentage of normally germinated seeds on day 3 (germinative energy) and on day 7 (germinative capacity) after the beginning of the experiment. On day 7 the main biometric parameters were also measured: sprout height (mm), taproot length (mm) and number of lateral roots (pcs).
(§6) The results were processed with the method of variance analysis with the help of STRAZ software in order to get the LSD0.05 (least significant difference between the test results on 5% significance level).

[2] = tested on: sunflower seeds (“Voronezh 638” variety); experiment: Laboratory tests of DMOA and DEOA for sunflower seeds
Protocol: as §1, §2, §3, §4, §5, §6

[3] = tested on: alfalfa seeds (“Vega” variety); experiment: Laboratory tests of DMOA and DEOA for alfalfa seeds
Protocol: as §1, §2, §3, §4, §5, §6

[4] = tested on: cucumber seeds (“Nezhinsky” variety); experiment: Laboratory tests of DMOA and DEOA for cucumber seeds
Protocol: as §1, §2, §3, §4, §5, §6

CCOC(=O)C=C([O-])C(=O)OCC.[Na+] [DEOA, sodium salt of diethyl ester of oxaloacetic acid]
Germinative energy ([1]; 4.8 · 10^−5 M): 93% | Germinative capacity ([1]; 4.8 · 10^−5 M): 95% | Number of lateral roots ([1]; 4.8 · 10^−5 M): 0.5 ↑ pcs. | Sprout height ([1]; 4.8 · 10^−5 M): 25.3 mm | Taproot length ([1]; 4.8 · 10^−5 M): 80.1 mm | Germinative energy ([1]; 4.8 · 10^−6 M): 75% | Germinative capacity ([1]; 4.8 · 10^−6 M): 80% | Number of lateral roots ([1]; 4.8 · 10^−6 M): 0.2 pcs. | Sprout height ([1]; 4.8 · 10^−6 M): 25.7 mm | Taproot length ([1]; 4.8 · 10^−6 M): 77.7 mm | Germinative energy ([1]; 4.8 · 10^−7 M): 88% | Germinative capacity ([1]; 4.8 · 10^−7 M): 91% | Number of lateral roots ([1]; 4.8 · 10^−7 M): 0.4 pcs. | Sprout height ([1]; 4.8 · 10^−7 M): 26.3 mm | Taproot length ([1]; 4.8 · 10^−7 M): 84.6 ↑ mm | Germinative energy ([1]; 4.8 · 10^−8 M): 74% | Germinative capacity ([1]; 4.8 · 10^−8 M): 76% | Number of lateral roots ([1]; 4.8 · 10^−8 M): 0.2 pcs. | Sprout height ([1]; 4.8 · 10^−8 M): 22.7 mm | Taproot length ([1]; 4.8 · 10^−8 M): 77.9 mm | Germinative energy ([1]; 4.8 · 10^−9 M): 82% | Germinative capacity ([1]; 4.8 · 10^−9 M): 89% | Number of lateral roots ([1]; 4.8 · 10^−9 M): 0.4 pcs. | Sprout height ([1]; 4.8 · 10^−9 M): 21.3 ↓ mm | Taproot length ([1]; 4.8 · 10^−9 M): 77.9 mm | Germinative energy ([2]; 4.8 · 10^−5 M): 87% | Germinative capacity ([2]; 4.8 · 10^−5 M): 93% | Number of lateral roots ([2]; 4.8 · 10^−5 M): 9.6 pcs. | Sprout height ([2]; 4.8 · 10^−5 M): 40.1 ↑↑↑↑↑ mm | Taproot length ([2]; 4.8 · 10^−5 M): 38.4 mm | Germinative energy ([2]; 4.8 · 10^−6 M): 80% | Germinative capacity ([2]; 4.8 · 10^−6 M): 90% | Number of lateral roots ([2]; 4.8 · 10^−6 M): 8.9 pcs. | Sprout height ([2]; 4.8 · 10^−6 M): 29.7 ↑↑ mm | Taproot length ([2]; 4.8 · 10^−6 M): 44.0 mm | Germinative energy ([2]; 4.8 · 10^−7 M): 93 ↑ % | Germinative capacity ([2]; 4.8 · 10^−7 M): 93% | Number of lateral roots ([2]; 4.8 · 10^−7 M): 6.9 pcs. | Sprout height ([2]; 4.8 · 10^−7 M): 29.2 ↑↑ mm | Taproot length ([2]; 4.8 · 10^−7 M): 37.0 mm | Germinative energy ([2]; 4.8 · 10^−8 M): 97 ↑ % | Germinative capacity ([2]; 4.8 · 10^−8 M): 99 ↑ % | Number of lateral roots ([2]; 4.8 · 10^−8 M): 11.2 ↑ pcs. | Sprout height ([2]; 4.8 · 10^−8 M): 27.7 ↑ mm | Taproot length ([2]; 4.8 · 10^−8 M): 56.3 ↑↑ mm | Germinative energy ([2]; 4.8 · 10^−9 M): 81% | Germinative capacity ([2]; 4.8 · 10^−9 M): 87% | Number of lateral roots ([2]; 4.8 · 10^−9 M): 9.5 pcs. | Sprout height ([2]; 4.8 · 10^−9 M): 30.5 ↑↑ mm | Taproot length ([2]; 4.8 · 10^−9 M): 38.3 mm | Germinative energy ([3]; 4.8 · 10^−5 M): 93% | Germinative capacity ([3]; 4.8 · 10^−5 M): 97% | Number of lateral roots ([3]; 4.8 · 10^−5 M): 0.1 pcs. | Sprout height ([3]; 4.8 · 10^−5 M): 34.9 ↑↑ mm | Taproot length ([3]; 4.8 · 10^−5 M): 41.9 ↑ mm | Germinative energy ([3]; 4.8 · 10^−6 M): 73% | Germinative capacity ([3]; 4.8 · 10^−6 M): 80% | Number of lateral roots ([3]; 4.8 · 10^−6 M): 0.0 pcs. | Sprout height ([3]; 4.8 · 10^−6 M): 32.5 ↑ mm | Taproot length ([3]; 4.8 · 10^−6 M): 37.5 ↑ mm | Germinative energy ([3]; 4.8 · 10^−7 M): 88% | Germinative capacity ([3]; 4.8 · 10^−7 M): 93% | Number of lateral roots ([3]; 4.8 · 10^−7 M): 0.5 pcs. | Sprout height ([3]; 4.8 · 10^−7 M): 33.5 ↑ mm | Taproot length ([3]; 4.8 · 10^−7 M): 32.2 mm | Germinative energy ([3]; 4.8 · 10^−8 M): 73% | Germinative capacity ([3]; 4.8 · 10^−8 M): 97% | Number of lateral roots ([3]; 4.8 · 10^−8 M): 0.1 pcs. | Sprout height ([3]; 4.8 · 10^−8 M): 32.4 ↑ mm | Taproot length ([3]; 4.8 · 10^−8 M): 42.3 ↑ mm | Germinative energy ([3]; 4.8 · 10^−9 M): 80% | Germinative capacity ([3]; 4.8 · 10^−9 M): 87% | Number of lateral roots ([3]; 4.8 · 10^−9 M): 0.7 ↑ pcs. | Sprout height ([3]; 4.8 · 10^−9 M): 28.5 mm | Taproot length ([3]; 4.8 · 10^−9 M): 34.6 mm | Germinative energy ([4]; 4.8 · 10^−5 M): 84% | Germinative capacity ([4]; 4.8 · 10^−5 M): 88% | Number of lateral roots ([4]; 4.8 · 10^−5 M): 14.3 pcs. | Sprout height ([4]; 4.8 · 10^−5 M): 27.8 ↑↑ mm | Taproot length ([4]; 4.8 · 10^−5 M): 83.7 mm | Germinative energy ([4]; 4.8 · 10^−6 M): 80% | Germinative capacity ([4]; 4.8 · 10^−6 M): 85% | Number of lateral roots ([4]; 4.8 · 10^−6 M): 14.4 pcs. | Sprout height ([4]; 4.8 · 10^−6 M): 22.2 mm | Taproot length ([4]; 4.8 · 10^−6 M): 88.3 ↑ mm | Germinative energy ([4]; 4.8 · 10^−7 M): 84% | Germinative capacity ([4]; 4.8 · 10^−7 M): 88% | Number of lateral roots ([4]; 4.8 · 10^−7 M): 15.5 ↑ pcs. | Sprout height ([4]; 4.8 · 10^−7 M): 22.3 mm | Taproot length ([4]; 4.8 · 10^−7 M): 89.3 ↑ mm | Germinative energy ([4]; 4.8 · 10^−8 M): 88% | Germinative capacity ([4]; 4.8 · 10^−8 M): 95% | Number of lateral roots ([4]; 4.8 · 10^−8 M): 12.4 pcs. | Sprout height ([4]; 4.8 · 10^−8 M): 19.3 mm | Taproot length ([4]; 4.8 · 10^−8 M): 79.8 mm | Germinative energy ([4]; 4.8 · 10^−9 M): 91% | Germinative capacity ([4]; 4.8 · 10^−9 M): 93% | Number of lateral roots ([4]; 4.8 · 10^−9 M): 13.7 pcs. | Sprout height ([4]; 4.8 · 10^−9 M): 21.6 mm | Taproot length ([4]; 4.8 · 10^−9 M): 93.8 ↑↑ mm
